Experimental data taken from patent US10919937B2, “Bicyclic peptide ligands and uses thereof” (BicycleTx Limited, priority 2018, dated 2021).
pKd: −log10 of the molar value. *1 amine or outer side, *2 acyl side, *3 side chain or, on linkers, in order; H or OH if unused. Where a SMILES comes first, the peptide text is derived from it. Bridges are numbered along the chain shown (N, C = ends). [ ]: non-standard residue; d: D form. X11 = O=C(C[*:1])N1CCN(c2ccc(-c3nc(-c4ccc(N5CCN(C(=O)C[*:2])CC5)cc4)nc(-c4ccc(N5CCN(C(=O)C[*:3])CC5)cc4)n3)cc2)CC1; X7 = O=C(c1ccc(C[*:1])cc1)N1CN(C(=O)c2ccc(C[*:2])cc2)CN(C(=O)c2ccc(C[*:3])cc2)C1

What was measured:
EphA2 = biological target: T1, EphA2 (Homo sapiens, UniProt P29317); experiment: EphA2 SPR Assay; assay type: binding; details: n = 2
T1 construct: purchased
T1 sequence (P29317 24-976, species assumed): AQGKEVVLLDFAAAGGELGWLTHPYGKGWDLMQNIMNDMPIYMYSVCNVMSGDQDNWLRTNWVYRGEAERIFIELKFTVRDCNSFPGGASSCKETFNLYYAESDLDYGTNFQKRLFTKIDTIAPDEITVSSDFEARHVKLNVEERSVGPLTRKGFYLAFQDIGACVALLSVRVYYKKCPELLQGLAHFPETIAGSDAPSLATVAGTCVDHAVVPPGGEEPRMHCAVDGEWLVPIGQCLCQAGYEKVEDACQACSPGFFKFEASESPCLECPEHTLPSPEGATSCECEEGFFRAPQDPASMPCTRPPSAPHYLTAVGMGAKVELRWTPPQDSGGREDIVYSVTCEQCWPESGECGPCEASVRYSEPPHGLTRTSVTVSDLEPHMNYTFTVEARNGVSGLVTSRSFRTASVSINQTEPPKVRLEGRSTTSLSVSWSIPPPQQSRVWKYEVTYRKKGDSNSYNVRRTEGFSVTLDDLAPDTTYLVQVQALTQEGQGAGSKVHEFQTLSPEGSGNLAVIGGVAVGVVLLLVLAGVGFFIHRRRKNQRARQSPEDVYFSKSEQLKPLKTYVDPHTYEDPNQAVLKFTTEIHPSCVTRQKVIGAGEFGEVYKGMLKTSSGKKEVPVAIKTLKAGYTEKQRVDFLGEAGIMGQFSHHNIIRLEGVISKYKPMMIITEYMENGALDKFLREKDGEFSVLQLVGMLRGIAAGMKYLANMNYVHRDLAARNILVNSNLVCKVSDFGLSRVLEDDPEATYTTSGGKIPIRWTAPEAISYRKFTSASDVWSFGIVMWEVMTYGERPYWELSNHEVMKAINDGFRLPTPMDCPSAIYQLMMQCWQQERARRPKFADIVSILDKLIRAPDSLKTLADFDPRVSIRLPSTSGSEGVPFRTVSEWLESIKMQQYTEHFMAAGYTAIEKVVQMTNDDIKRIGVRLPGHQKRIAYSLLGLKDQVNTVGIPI
Description: SPR Measurements: Non-Fc fusion proteins were biotinylated with EZ-Link™ Sulfo-NHS-LC-Biotin for 1 hour in 4 mM sodium acetate, 100 mM NaCl, pH 5.4 with a 3× molar excess of biotin over protein. The degree of labelling was determined using a Fluorescence Biotin QuantificationKit (Thermo) after dialysis of the reaction mixture into PBS. For analysis of peptide binding, a Biacore T200 10 instrument was used utilising a XanTec CMD500D chip. Streptavidin was immobilized on the chip using standard amine-coupling chemistry at 25° C. with HBS—N (10 mM HEPES, 0.15 M NaCl, pH 7.4) as the running buffer. Briefly, the carboxymethyl dextran surface was activated with a 7 min injection of a 1:1 ratio of 0.4 M 1-ethyl-3-(3-dimethylaminopropyl) carbodiimide hydrochloride (EDC)/0.1 M N-hydroxy succinimide (NHS) at a flow rate of 10 μl/min. For capture of streptavidin, the protein was diluted to 0.2 mg/ml in 10 mM sodium acetate (pH 4.5) and captured by injecting 120 μl onto the activated chip surface. Residual activated groups were blocked with a 7 min injection of 1 M ethanolamine (pH 8.5):HBS—N (1:1). Buffer was changed to PBS/0.05% Tween 20 and biotinylated EphA2 was captured to a level of 500-1500 RU using a dilution of protein to 0.2 μM in buffer. […]

MT1-MMP = MT1-MMP (Homo sapiens, UniProt P50281); details: bicyclic peptide formed with TBMB scaffold; MT1-MMP binder; cited from earlier work
CAIX = CAIX (Homo sapiens, UniProt Q16790); details: bicyclic peptide formed with TBMB scaffold; CAIX binder; cited from earlier work

Molecule	pKd (EphA2)	other results
CC(C)[C@H](NC(=O)[C@H](CC(=O)O)NC(=O)[C@H](C)N)C(=O)N[C@@H](Cc1cnc[nH]1)C(=O)N[C@H]1CSCc2ccc(cc2)C(=O)N2CN3CN(C2)C(=O)c2ccc(cc2)CSC[C@H](NC(=O)[C@H](Cc2c[nH]c4ccccc24)NC(=O)[C@H](Cc2ccccc2)NC(=O)[C@H]2CCCN2C(=O)CNC(=O)[C@H](Cc2c[nH]c4ccccc24)NC(=O)[C@@H]2CCCN2C1=O)C(=O)N1CCC[C@H]1C(=O)N[C@@H](C(C)C)C(=O)N[C@H](CC(N)=O)C(=O)N[C@H](CCCNC(=N)N)C(=O)N1CCC[C@@H]1C(=O)NCC(=O)N[C@H](C(=O)N[C@@H](C)C(=O)O)CSCc1ccc(cc1)C3=O [I-103] (H-ADVHCPWG[dP]FWCPV[dN][dR][dP]GCA-OH; linker 5-12-19 via X7)	< 5.00	–
CC(C)[C@H](NC(=O)[C@H](CC(=O)O)NC(=O)[C@H](C)N)C(=O)N[C@@H](Cc1cnc[nH]1)C(=O)N[C@H]1CSCC(=O)N2CCN(CC2)c2ccc(cc2)-c2nc3nc(n2)-c2ccc(cc2)N2CCN(CC2)C(=O)CSC[C@H](NC(=O)[C@H](Cc2c[nH]c4ccccc24)NC(=O)[C@H](Cc2ccccc2)NC(=O)[C@H]2CCCN2C(=O)CNC(=O)[C@H](Cc2c[nH]c4ccccc24)NC(=O)[C@@H]2CCCN2C1=O)C(=O)N1CCC[C@H]1C(=O)N[C@@H](C(C)C)C(=O)N[C@H](CC(N)=O)C(=O)N[C@H](CCCNC(=N)N)C(=O)N1CCC[C@@H]1C(=O)NCC(=O)N[C@H](C(=O)N[C@@H](C)C(=O)O)CSCC(=O)N1CCN(CC1)c1ccc-3cc1 [I-104] (H-ADVHCPWG[dP]FWCPV[dN][dR][dP]GCA-OH; linker 5-12-19 via X11)	> 6.30	–
βAla-Sar10-A-C(D-Ala)NE(1Nal)(D-Ala)CEDFYD(tBuGLy)C (AXACANEXACEDFYDGC; βAla-Sar10 N-terminal; non-natural residues; molecular scaffold; MOD_RES (1)..(1) Beta-Ala; MOD_RES (2)..(2) Sar10; MOD_RES (5)..(5) D-Ala; MOD_RES (8)..(8) 1Nal; MOD_RES (9)..(9) D-Ala; MOD_RES (16)..(16) tBu-Gly) [17-69-07-N241, treated with molecular scaffold reagents]	–	pKd (MT1-MMP): 8.92
βAla-Sar10-A-CTECWVDGWVPC (AXACTECWVDGWVPC; βAla-Sar10 N-terminal; TBMB scaffold; MOD_RES (1)..(1) Beta-Ala; MOD_RES (2)..(2) Sar10) [compound 2]	–	pKd (CAIX): 8.00
